≈ marks a conversion by molar mass, not a printed value. Where two headings read alike, the source gives them in different places. Blank lines part the entries; values can stand above or below the molecule they belong to.
Assays:
[1] = system: IL23-induced TYK2/phosphoSTAT3 (Tyr705) in Kit225 T cells; experiment: Kit225 T cell assay for IL23-induced TYK2/phosphoSTAT3 activity; type: cell-based, human; conditions: Homo sapiens, KIT225, read-out: IC50 IL23-induced-STAT3 Phosphorylation
Experimental: (§1) The cells were treated with serially diluted compounds for 1 hour and stimulated with 100 ng/mL human recombinant IL23 (R&D Systems) for 20 minutes. The treated cells were then lysed and cellular phosphorylated-STAT3 (Tyr705) levels were measured by AlphaLISA (PerkinElmer, Cat# ALSU-PST3) according to the manufacturer’s instructions.

[2] = system: IFNα-induced CXCL10 production in human whole blood; experiment: IFNα-induced CXCL10 production in human whole blood; type: cell-based
Experimental: Human whole blood [drawn with Ethylenediaminetetraacetic acid (EDTA) as anti-coagulant] was obtained from Zen-Bio Inc. (Durham, NC). […] The plasma was collected for detection of C-X-C motif chemokine 10 (CXCL10, IP10) secretion. CXCL10 was measured by Human CXCL10/IP-10 AlphaLISA Kit (PerkinElmer, #AL259 C/F) according to the manufacturer’s instructions.

[3] = system: IFNα-induced TYK2/phosphoSTAT1 (Tyr701) in Kit225 T cells; experiment: Kit225 T cell assay for IFNα-induced TYK2/phosphoSTAT1 activity; type: cell-based, human; conditions: Homo sapiens, KIT225, read-out: IC50 IFNα-induced-STAT1 Phosphorylation
Experimental: as §1, with “80” for “100”, “IFNα” for “IL23”, “15” for “20”, “phosphorylated-STAT1 (Tyr701)” for “phosphorylated-STAT3 (Tyr705)”, “Cat#ALSU-PST1)” for “Cat# ALSU-PST3)”

[4] = target: T1, TYK2 JH2 pseudokinase domain (Homo sapiens, UniProt P29597); experiment: KdELECT competition binding assay, TYK2 JH2; conditions: isolated TYK2 JH2 domain
T1 construct: purchased Eurofins DiscoverX Corporation (contract assay)
Experimental: (§2) The KdELECT competition assays were performed to test the binding affinity of compounds to the JH1 kinase region or JH2 pseudokinase region in TYK2 or JAK by ligand competition with JH1 or JH2 protein segments. The assay was carried out at Eurofins DiscoverX Corporation following the established standard protocol (DiscoverX, San Diego, CA). In this assay, compounds that bind to the kinase or pseudokinase protein regions prevent the protein binding to the immobilized ligand and reduce the amount of kinase matter captured on the solid surface. […] Dissociation constants (Kds) for test compound-kinase interactions are calculated by measuring the amount of kinase captured on the solid support as a function of the test compound concentration. […] The ligated beads were blocked with excess biotin and washed with blocking buffer to remove unbound ligand and to reduce nonspecific binding. […] All reactions were performed in polypropylene 384-well plates with a final volume of 20 μL. […] The beads were then re-suspended in the elution buffer and incubated at room temperature with shaking for 30 minutes. The kinase concentration in the eluant was measured by qPCR. Two replicates were performed and averaged to obtain the Kd measurement.

LM T1/2, Mk = type: in vitro ADME; conditions: monkey, liver microsomes
LM T1/2, D = type: in vitro ADME; conditions: dog, liver microsomes
Solubility (PBS/Fas/Fes) = type: physicochemical
CYP450 1A2 = target: T2, CYP450 1A2 (Homo sapiens, UniProt P05177); experiment: CYP450 inhibition, 1A2; type: in vitro ADME
T2 sequence (P05177 1-516): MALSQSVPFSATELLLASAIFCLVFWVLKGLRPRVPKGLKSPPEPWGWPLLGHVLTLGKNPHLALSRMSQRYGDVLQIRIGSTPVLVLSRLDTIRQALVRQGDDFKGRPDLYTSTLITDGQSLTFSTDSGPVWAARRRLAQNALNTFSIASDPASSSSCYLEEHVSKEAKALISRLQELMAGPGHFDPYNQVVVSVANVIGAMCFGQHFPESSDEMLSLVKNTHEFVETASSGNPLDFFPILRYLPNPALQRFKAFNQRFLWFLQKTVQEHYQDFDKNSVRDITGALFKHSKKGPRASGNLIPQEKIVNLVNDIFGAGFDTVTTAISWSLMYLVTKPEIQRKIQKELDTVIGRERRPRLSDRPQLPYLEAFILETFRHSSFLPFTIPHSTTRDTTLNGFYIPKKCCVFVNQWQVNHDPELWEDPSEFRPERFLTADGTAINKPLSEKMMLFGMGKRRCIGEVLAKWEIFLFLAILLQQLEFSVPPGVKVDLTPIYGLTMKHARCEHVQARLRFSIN

LM T1/2, M = type: in vitro ADME; conditions: mouse, liver microsomes
CYP450 3A4 = CYP450 3A4 (Homo sapiens, UniProt P08684); experiment: CYP450 inhibition, 3A4; type: in vitro ADME; conditions: 3A4(m); read-out: CYP450 3A4(m)
LM T1/2, R = type: in vitro ADME; conditions: rat, liver microsomes
TYK2 JH1 kinase domain = target: T3, TYK2 JH1 kinase domain (Homo sapiens, UniProt P29597); experiment: KdELECT competition binding assay, TYK2 JH1; conditions: isolated TYK2 JH1 domain
T3 construct: purchased Eurofins DiscoverX Corporation (contract assay)
T3 sequence (P29597 897-1176 limits assumed): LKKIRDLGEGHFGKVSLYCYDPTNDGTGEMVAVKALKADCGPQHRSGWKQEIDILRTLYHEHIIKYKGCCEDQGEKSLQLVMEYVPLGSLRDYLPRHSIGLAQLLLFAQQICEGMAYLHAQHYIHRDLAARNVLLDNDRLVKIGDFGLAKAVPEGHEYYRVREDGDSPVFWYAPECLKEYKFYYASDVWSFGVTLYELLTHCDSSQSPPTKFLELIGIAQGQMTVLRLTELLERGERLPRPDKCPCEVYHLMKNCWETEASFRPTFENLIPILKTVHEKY
Experimental: as §2

CYP450 2C19 = CYP450 2C19 (Homo sapiens, UniProt P33261); experiment: CYP450 inhibition, 2C19; type: in vitro ADME
CYP450 2C9 = CYP450 2C9 (Homo sapiens, UniProt P11712); experiment: CYP450 inhibition, 2C9; type: in vitro ADME
LM T1/2, H = type: in vitro ADME; conditions: human, liver microsomes
CYP450 2D6 = CYP450 2D6 (Homo sapiens, UniProt P10635); experiment: CYP450 inhibition, 2D6; type: in vitro ADME
GSH = type: in vitro ADME
panel of 98 kinases = experiment: Kinome screening panel (DiscoverX scanEdge); type: binding; conditions: 1 µM; 91 non-mutant kinases
Experimental: For compound selectivity across a multi-kinase panel, compound binding affinity to each kinase or pseudokinase protein region was assessed using the DiscoverX scanEdge screening. Compounds were screened at a concentration of 1,000 nM in competition binding assays at Eurofins DiscoverX Corporation following the established standard protocol (DiscoverX, San Diego, CA), as described previously in the KdELECT competition binding assay. Competition with test compounds for binding to resin conjugated affinity ligand was employed to determine the “hits”, which are identified by measuring the amount of kinase captured in test versus control samples by using a quantitative PCR method that detects the associated DNA label. This measurement assesses compound selectivity against a panel of 98 kinases including kinases from the protein kinase A, G, and C family group (AGC), Ca^2+/calmodulin-dependent protein kinase class of enzymes (CAMK), group of cyclin-dependent kinase (CDK), mitogen-activated protein kinase (MAPK), glycogen synthase kinase (GSK) and CDC-like kinase (CLK) (CMGC), Casein kinase 1 (CK1), group of Ste 7, Ste 11 and Ste 20 kinases (STE), Tyrosine Kinases (TK), Tyrosine Kinase-Like group (TKL), lipid, and atypical kinase families, and other mutant forms.

[5] = Homo sapiens, read-out: IFNa-induced-CXCL10 Production in Human Whole Blood IC50, Average
[6] = Homo sapiens, read-out: IFNa-induced-CXCL10 Production in Human Whole Blood IC50, Donor 1
[7] = Homo sapiens, read-out: IFNa-induced-CXCL10 Production in Human Whole Blood IC50, Donor 2
[8] = Homo sapiens, read-out: IFNa-induced-CXCL10 Production in Human Whole Blood IC50, Donor 3

T1 sequence (P29597 589-875 limits assumed): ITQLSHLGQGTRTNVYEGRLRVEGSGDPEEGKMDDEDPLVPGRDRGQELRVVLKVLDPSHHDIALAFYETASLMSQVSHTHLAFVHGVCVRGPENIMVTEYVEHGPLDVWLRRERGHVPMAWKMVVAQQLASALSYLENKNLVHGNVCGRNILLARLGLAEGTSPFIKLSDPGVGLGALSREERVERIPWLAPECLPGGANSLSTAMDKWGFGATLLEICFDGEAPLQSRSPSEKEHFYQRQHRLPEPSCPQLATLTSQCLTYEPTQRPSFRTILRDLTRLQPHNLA
Chain of CYP450 2C19 (P33261 whole entry): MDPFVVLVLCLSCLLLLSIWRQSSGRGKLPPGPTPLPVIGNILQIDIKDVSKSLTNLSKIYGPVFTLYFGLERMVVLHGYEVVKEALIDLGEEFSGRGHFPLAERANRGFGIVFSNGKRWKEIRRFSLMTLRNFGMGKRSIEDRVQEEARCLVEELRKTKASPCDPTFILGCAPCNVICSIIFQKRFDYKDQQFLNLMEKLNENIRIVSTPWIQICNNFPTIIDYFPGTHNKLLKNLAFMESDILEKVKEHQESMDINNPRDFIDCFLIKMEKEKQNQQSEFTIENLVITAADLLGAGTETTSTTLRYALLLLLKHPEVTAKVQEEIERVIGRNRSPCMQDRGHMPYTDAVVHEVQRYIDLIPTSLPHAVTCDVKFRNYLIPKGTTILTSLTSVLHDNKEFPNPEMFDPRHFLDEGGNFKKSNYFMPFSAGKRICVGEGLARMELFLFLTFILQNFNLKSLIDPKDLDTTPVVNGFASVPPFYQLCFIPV
Chain of CYP450 2D6 (P10635 whole entry): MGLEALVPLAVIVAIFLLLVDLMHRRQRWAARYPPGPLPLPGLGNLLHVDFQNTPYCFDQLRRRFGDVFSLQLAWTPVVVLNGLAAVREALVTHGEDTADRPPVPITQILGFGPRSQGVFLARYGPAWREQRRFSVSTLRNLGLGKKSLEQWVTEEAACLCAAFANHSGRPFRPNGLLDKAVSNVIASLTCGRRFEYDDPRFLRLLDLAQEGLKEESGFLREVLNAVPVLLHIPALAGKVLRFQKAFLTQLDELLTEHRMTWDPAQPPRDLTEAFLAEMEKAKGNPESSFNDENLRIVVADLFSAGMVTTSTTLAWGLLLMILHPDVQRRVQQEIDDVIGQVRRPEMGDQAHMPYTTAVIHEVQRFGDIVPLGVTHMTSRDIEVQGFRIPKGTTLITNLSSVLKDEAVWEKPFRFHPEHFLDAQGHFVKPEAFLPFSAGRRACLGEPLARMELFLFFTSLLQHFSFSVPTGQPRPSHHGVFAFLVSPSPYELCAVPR
Chain of CYP450 3A4 (P08684 whole entry): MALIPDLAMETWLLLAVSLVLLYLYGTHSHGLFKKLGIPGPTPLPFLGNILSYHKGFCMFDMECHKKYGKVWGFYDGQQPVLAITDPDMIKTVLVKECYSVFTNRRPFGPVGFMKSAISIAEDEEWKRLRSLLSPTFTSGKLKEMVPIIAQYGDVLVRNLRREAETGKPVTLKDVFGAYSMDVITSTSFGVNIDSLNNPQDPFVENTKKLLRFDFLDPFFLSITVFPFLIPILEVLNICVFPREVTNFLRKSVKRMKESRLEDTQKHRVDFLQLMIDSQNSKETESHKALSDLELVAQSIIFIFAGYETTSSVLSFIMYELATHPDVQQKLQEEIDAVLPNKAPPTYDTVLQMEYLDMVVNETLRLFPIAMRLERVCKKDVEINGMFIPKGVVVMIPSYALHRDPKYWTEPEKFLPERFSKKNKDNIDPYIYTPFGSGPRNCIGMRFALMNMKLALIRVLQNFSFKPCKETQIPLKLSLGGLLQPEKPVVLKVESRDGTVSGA
Chain of CYP450 2C9 (P11712 whole entry): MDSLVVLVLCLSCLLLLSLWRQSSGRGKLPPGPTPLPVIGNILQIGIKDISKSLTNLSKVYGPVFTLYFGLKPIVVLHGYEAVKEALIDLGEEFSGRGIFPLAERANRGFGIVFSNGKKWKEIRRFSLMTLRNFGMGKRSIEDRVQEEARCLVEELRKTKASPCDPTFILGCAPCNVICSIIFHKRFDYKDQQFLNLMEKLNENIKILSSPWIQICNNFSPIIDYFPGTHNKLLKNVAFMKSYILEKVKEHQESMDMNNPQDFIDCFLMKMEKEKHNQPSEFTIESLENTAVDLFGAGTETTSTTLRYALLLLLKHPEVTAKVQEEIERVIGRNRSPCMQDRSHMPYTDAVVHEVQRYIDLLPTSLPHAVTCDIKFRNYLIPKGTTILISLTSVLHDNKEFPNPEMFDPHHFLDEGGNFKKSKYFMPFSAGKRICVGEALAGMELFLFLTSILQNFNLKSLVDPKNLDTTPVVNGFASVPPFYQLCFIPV

Structure (SMILES): [2H]C([2H])([2H])NC(=O)c1nnc(NC(=O)C2CC2)cc1Nc1cccc(-c2nc3c(s2)CN(S(C)(=N)=O)C3)c1OC (stereo not drawn) [SHR3110]
IC50 [1]: 24 nM
IC50 [2, 5]: 570 nM
IC50 [2, 6]: 480 nM
IC50 [2, 7]: 710 nM
IC50 [2, 8]: 520 nM
IC50 [3]: 16 nM

IC50 [1]: 3800 nM
IC50 ([2]; Homo sapiens; average of Donor 1-3; read-out: IFNa-induced-CXCL10 Production in Human Whole Blood IC50, Average): 730 nM
IC50 ([2]; Homo sapiens; read-out: IFNa-induced-CXCL10 Production in Human Whole Blood IC50, Donor 1): 770 nM
IC50 ([2]; Homo sapiens; read-out: IFNa-induced-CXCL10 Production in Human Whole Blood IC50, Donor 2): 790 nM
IC50 ([2]; Homo sapiens; read-out: IFNa-induced-CXCL10 Production in Human Whole Blood IC50, Donor 3): 630 nM
IC50 [3]: 250 nM
Structure (SMILES): O=C(Nc1nc2cccc(-c3ccc(CN4CCS(=O)(=O)CC4)cc3)n2n1)C1CC1 [Filgotinib]

Structure (SMILES): CNC(=O)c1nnc(NC(=O)C2CC2)c2[nH]c(-c3ccccc3OC)cc12 [SHR2178]
Kd [4]: 0.34 nM
half-life (LM T1/2, Mk): 99 min
half-life (LM T1/2, D): 40 min
solubility (Solubility (PBS/Fas/Fes); FaSSIF, read-out: Solubility, Fas): 1.7 µM (≈ 0.621 µg/mL)
solubility (Solubility (PBS/Fas/Fes); FeSSIF (Fes [sic]), fessif, read-out: Solubility, Fes): 3.5 µM (≈ 1.28 µg/mL)
solubility (Solubility (PBS/Fas/Fes); PBS, aqueous buffer, read-out: Solubility, PBS): 0.1 µM (≈ 0.0365 µg/mL)
IC50 (CYP450 1A2): 4000 nM
half-life (LM T1/2, M): 55 min
IC50 (CYP450 3A4): 30000 nM
half-life (LM T1/2, R): 24 min
Kd (TYK2 JH1 kinase domain): > 20000 nM
IC50 (CYP450 2C19): 30000 nM
IC50 (CYP450 2C9): 30000 nM
half-life (LM T1/2, H): 34 min
IC50 (CYP450 2D6): 30000 nM
GSH (GSH): negative

IC50 [1]: 3 nM
IC50 [2, 5]: 1900 nM
IC50 [2, 6]: 2100 nM
IC50 [2, 7]: 2800 nM
IC50 [2, 8]: 740 nM
IC50 [3]: 12 nM
Structure (SMILES): N#CC[C@H](C1CCCC1)n1cc(-c2ncnc3[nH]ccc23)cn1 [Ruxolitinib]

Kd [4]: 0.053 nM
Structure (SMILES): CNC(=O)c1cnc(Nc2ccc(N3CCC3)cn2)cc1Nc1ccccc1S(C)(=O)=O [SHR1274]
No. of Hits S (1) (panel of 98 kinases): 1
No. of Hits S (10) (panel of 98 kinases): 1
No. of Hits S (35) (panel of 98 kinases): 2

IC50 ([2]; human whole blood, IFNα 16 hours; read-out: TYK2-associated IFNα-induced-CXCL10 Production in Human Whole Blood: IC50): 2000 ± 960 nM
Structure (SMILES): Cn1cc(-c2cn3nccc3c(-c3cnn([C@]4(CC#N)C[C@@H](C#N)C4)c3)n2)cn1 [Ropsacitinib]

Structure (SMILES): CC[C@@H]1CN(C(=O)NCC(F)(F)F)C[C@@H]1c1cnc2cnc3[nH]ccc3n12 [Upadacitinib]
IC50 [1]: 22 nM
IC50 [2, 5]: 120 nM
IC50 [2, 6]: 130 nM
IC50 [2, 7]: 110 nM
IC50 [2, 8]: 130 nM
IC50 [3]: 7 nM

From article PMC9186491, “Novel Small Molecule Tyrosine Kinase 2 Pseudokinase Ligands Block Cytokine-Induced TYK2-Mediated Signaling Pathways” (Frontiers in Immunology, 2022)
